The results in this text go back to ChEMBL document CHEMBL5352415, “Discovery of new macrophage M2 polarization modulators as multiple sclerosis treatment agents that enable the inflammation microenvironment remodeling” (Eur J Med Chem, 2022).

Series [1] concerns Mus musculus. The experiment in a line: Anti-inflammatory activity in MOG (35 to 55 residues)/pertussis toxin-induced experimental autoimmune encephalomyelitis C57BL/6 mouse model assessed as M2 macrophage polarization by measuring increase in Ym1 mRNA expression in CNS at 75 to 150 mg/kg, po administered once daily starting from day 7 to day 20 by qRT-PCR analysis. The series is classed as functional, organism-based. Particulars: dose 75-150 mg/kg, time 14.0 day.

Series [2] has as its system BMDM. The experiment in a line: Inhibition of LPS-induced M1 macrophage polarization in C57BL/6 mouse BMDM cells assessed as decrease in IFN-gamma level preincubated with LPS for 24 hrs followed by compound addition and measured after 24 hrs by qRT-PCR analysis. The series is classed as functional, cell-based. Particulars: dose 0.05-2 µM.
Series [3] concerns Mus musculus. The experiment in a line: Anti-inflammatory activity in MOG (35 to 55 residues)/pertussis toxin-induced experimental autoimmune encephalomyelitis C57BL/6 mouse model assessed as inhibition of CD4+ T cell differentiation by measuring reduction in Th1 (IFN-gamma+) cells in spleen administered orally once daily starting from day 7 to day 20 by flow cytometric analysis. The series is classed as functional, organism-based. Conditions: dose 75-150 mg/kg, route po, time 14.0 day.

Series [4] is described as follows: Inhibition of LPS-induced M1 macrophage polarization in C57BL/6 mouse BMDM cells assessed as fold change in IL-1beta gene level at 1 uM preincubated with LPS for 24 hrs followed by compound addition and measured after 24 hrs by qRT-PCR analysis (reference value: 44.88 +/- 1.99). The series is classed as functional.
Series [5] deals with Mus musculus. The experiment in a line: Anti-inflammatory activity in MOG (35 to 55 residues)/pertussis toxin-induced experimental autoimmune encephalomyelitis C57BL/6 mouse model assessed as increase in F4/80+ CD206+ M2 macrophage in spleen at 75 to 150 mg/kg, po administered once daily starting from day 7 to day 20 by flow cytometric analysis. In kind it is functional. Conditions: dose 75-150 mg/kg, time 14 day.

Series [6] relates to Mus musculus. Description: Anti-inflammatory activity in MOG (35 to 55 residues)/pertussis toxin-induced experimental autoimmune encephalomyelitis C57BL/6 mouse model assessed as inhibition of M1 macrophage polarization by measuring decrease in interferon-gamma mRNA expression in CNS at 75 to 150 mg/kg, po administered once daily starting from day 7 to day 20 by qRT-PCR analysis. In kind it is functional, organism-based. Conditions: dose 75-150 mg/kg, time 14.0 day.

For series [7], the system named is Mus musculus. The experiment in a line: Anti-inflammatory activity in MOG (35 to 55 residues)/pertussis toxin-induced experimental autoimmune encephalomyelitis C57BL/6 mouse model assessed as T cell activation by measuring decrease in CD44hi CD62Llo T cells in DLN at 75 to 150 mg/kg, po administered once daily starting from day 7 to day 20 by flow cytometric analysis. In kind it is functional. On the set-up: scale not given: the % may be the effect or the level left. Particulars: dose 75-150 mg/kg, time 14 day.

Series [8] can be described thus: AUC(0 to t) in ICR mouse at 50 mg/kg, po measured upto 24 hrs by LC/MS analysis. In kind it is ADME, organism-based. On the set-up: dose 50 mg/kg, time < 24 hrs, route po. Conditions: in vivo.
The nature of series [9]: Inhibition of M1 macrophage polarization in C57BL/6 mouse BMDM cells assessed as fold decrease in Inos gene level at 1 uM incubated for 24 hrs by qRT-PCR analysis (reference value: 1). In kind it is functional.
The subject of series [10] is Mus musculus. The experiment in a line: Anti-inflammatory activity in MOG (35 to 55 residues)/pertussis toxin-induced experimental autoimmune encephalomyelitis C57BL/6 mouse model assessed as attenuation of demyelination in spinal cord at 75 to 150 mg/kg, po administered once daily starting from day 7 to day 20 by luxol fast blue staining based analysis. The series is classed as functional, organism-based. Conditions: dose 75-150 mg/kg, time 14.0 day.

Series [11] in a line: Inhibition of LPS-induced M1 macrophage polarization in C57BL/6 mouse BMDM cells assessed as fold decrease in Inos gene level at 1 uM preincubated with LPS for 24 hrs followed by compound addition and measured after 24 hrs by qRT-PCR analysis (reference value: 524.05 +/- 24.75). The series is classed as functional.
Series [12] in a line: Half-life in ICR mouse at 50 mg/kg, po measured upto 24 hrs by LC/MS analysis. In kind it is ADME, organism-based. Particulars: in vivo.
For series [13], the system named is Mus musculus. Description: Anti-inflammatory activity in MOG (35 to 55 residues)/pertussis toxin-induced experimental autoimmune encephalomyelitis C57BL/6 mouse model assessed as decrease in F4/80+ CD86+ M1 macrophage in DLN at 75 to 150 mg/kg, po administered once daily starting from day 7 to day 20 by flow cytometric analysis. In kind it is functional, organism-based. Particulars: dose 75-150 mg/kg, time 14.0 day.

Series [14] is described as follows: Inhibition of LPS-induced M1 macrophage polarization in C57BL/6 mouse BMDM cells assessed as fold change in IL-6 gene level at 1 uM preincubated with LPS for 24 hrs followed by compound addition and measured after 24 hrs by qRT-PCR analysis (reference value: 36.05 +/- 10.74). In kind it is functional.
Series [15] relates to Mus musculus. The experiment in a line: Anti-inflammatory activity in MOG (35 to 55 residues)/pertussis toxin-induced experimental autoimmune encephalomyelitis C57BL/6 mouse model assessed as decrease in F4/80+ CD86+ M1 macrophage in spleen at 75 to 150 mg/kg, po administered once daily starting from day 7 to day 20 by flow cytometric analysis. In kind it is functional, organism-based. Particulars: dose 75-150 mg/kg, time 14.0 day.

Series [16] deals with BMDM. Description: Inhibition of LPS-induced M1 macrophage polarization in C57BL/6 mouse BMDM cells assessed as decrease in Inos gene level preincubated with LPS for 24 hrs followed by compound addition and measured after 24 hrs by qRT-PCR analysis. In kind it is functional, cell-based. Conditions: dose 0.05-2 µM.
In series [17] the target is RAC-alpha serine/threonine-protein kinase (Mus musculus, UniProt P31750). The experiment in a line: Inhibition of Akt phosphorylation at Ser473 in C57BL/6 mouse BMDM cells at 50 to 500 nM incubated for 24 hrs by Western blot analysis. The series is classed as cell-based. Particulars: 0.5 µM, dose 50-500 nM.
RAC-alpha serine/threonine-protein kinase, sequence (P31750 whole entry): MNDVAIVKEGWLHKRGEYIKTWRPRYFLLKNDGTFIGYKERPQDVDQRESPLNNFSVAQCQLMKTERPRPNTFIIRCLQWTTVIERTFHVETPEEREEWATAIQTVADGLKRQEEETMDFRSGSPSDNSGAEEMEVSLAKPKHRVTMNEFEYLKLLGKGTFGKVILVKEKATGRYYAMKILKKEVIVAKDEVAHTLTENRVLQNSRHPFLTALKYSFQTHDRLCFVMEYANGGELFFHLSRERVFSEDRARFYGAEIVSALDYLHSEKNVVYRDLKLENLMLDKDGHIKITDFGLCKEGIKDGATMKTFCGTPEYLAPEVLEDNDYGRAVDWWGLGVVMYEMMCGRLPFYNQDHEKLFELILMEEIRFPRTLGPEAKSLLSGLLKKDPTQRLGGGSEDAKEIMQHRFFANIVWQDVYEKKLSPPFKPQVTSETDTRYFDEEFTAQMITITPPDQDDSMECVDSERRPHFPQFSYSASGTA

Structures are written as SMILES. Calls of active or inactive are those of the source. The rule behind the calls is not given here.

Regarding `Cl.Cn1ncc(Br)c1-c1ccc(C(=O)N[C@@H]2CNCC[C@H]2c2ccc(F)c(F)c2)cc1C1CC1`, the outcome in the series with Mus musculus [1], with Mus musculus [6], with Mus musculus [10], with Mus musculus [13] and in the series on Mus musculus [15] was Active. In addition, the inhibition result in the series with BMDM [2] and in the series with BMDM [16] was “Dose-Dependent Effect” throughout. The Activity entry is “Dose-Dependent Effect” in the series with Mus musculus [3], 12.4% in the series with Mus musculus [5] and 29% in the series with Mus musculus [7]. The “fold change (FC)” value in series [4] came to 71.77; in series [9], 0.49; in [11], 195.4; in series [14] it was 69.99. The molecule further came in with an AUC(0-t) at 24 h in [8] of 27600 ng·h/mL. Besides, in series [12], the half-life is 13.7 h. Moreover, in [17], the “inhibition (INH)” value was “Not Active”.
